Test results reported in ChEMBL document CHEMBL1201862, “PubChem BioAssay data set” (2004).
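Each compound was tested at five concentrations against cells in 96-well plates for 48 hours. The concentration for 50% growth inhibition is given as GI50.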 Activity calls are given as the source filed them. Rule as the data show it: active = GI50 up to about 1.1 µM and inactive = higher.

Columns and labels:
Test in all cases: inhibition of tumour cell growth, NCI panel, 48 h
[1] = system: EKVX
[2] = system: LOX IMVI
[3] = system: CCRF-CEM
[4] = system: RPMI-8226
[5] = system: MDA-MB-231
[6] = system: UACC-257
[7] = system: OVCAR-4
[8] = system: CAKI-1
[9] = system: SNB-75
[10] = system: OVCAR-5
[11] = system: A498
[12] = system: IGROV-1
[13] = system: NCI-H226
[14] = system: ACHN
[15] = system: 786-0
[16] = system: NCI-H460
[17] = system: RXF 393
[18] = system: SK-MEL-5
[19] = system: M14
[20] = system: Malme-3M
[21] = system: HCT-116
[22] = system: COLO 205
[23] = system: SR
[24] = system: PC-3
[25] = system: UACC-62
[26] = system: T47D
[27] = system: SK-MEL-28
[28] = system: SW-620
[29] = system: SF-268
[30] = system: HOP-92
[31] = system: MDA-MB-435
[32] = system: MDA-N
[33] = system: NCI/ADR-RES
[34] = system: SN12C
[35] = system: HCC 2998
[36] = system: BT-549
[37] = system: TK-10
[38] = system: HOP-62
[39] = system: UO-31
[40] = system: MOLT-4
[41] = system: SK-MEL-2
[42] = system: SK-OV-3
[43] = system: NCI-H522
[44] = system: HT-29
[45] = system: SF-295
[46] = system: A549
[47] = system: SNB-19
[48] = system: U-251
[49] = system: OVCAR-8
[50] = system: Hs-578T
[51] = system: HL-60
[52] = system: K562
[53] = system: HCT-15
[54] = system: NCI-H23
[55] = system: OVCAR-3
[56] = system: MCF7
[57] = system: DU-145
[58] = system: KM12
[59] = system: SF-539

## CC(C)NC(=O)OCc1c(COC(=O)NC(C)C)c(-c2ccc[n+](COC(=O)C(C)(C)C)c2)n2c1CCC2
[1]
  GI50: > 100 µM (inactive)
[2]
  GI50: 46.6 µM (inactive)
[3]
  GI50: 24.9 µM (inactive)
[4]
  GI50: > 100 µM (inactive)
[5]
  GI50: > 100 µM (inactive)
[6]
  GI50: > 100 µM (inactive)
[7]
  GI50: > 79.3 µM (inactive)
[8]
  GI50: 27.6 µM (inactive)
[9]
  GI50: > 89.1 µM (inactive)
[10]
  GI50: > 100 µM (inactive)
[11]
  GI50: 32.7 µM (inactive)
[12]
  GI50: > 80.7 µM (inactive)
[13]
  GI50: > 91 µM (inactive)
[14]
  GI50: 38.8 µM (inactive)
[15]
  GI50: 40.7 µM (inactive)
[16]
  GI50: 40.9 µM (inactive)
[17]
  GI50: 30.5 µM (inactive)
[18]
  GI50: > 95.5 µM (inactive)
[19]
  GI50: > 84.1 µM (inactive)
[20]
  GI50: > 100 µM (inactive)
[21]
  GI50: > 91.6 µM (inactive)
[22]
  GI50: > 93.5 µM (inactive)
[23]
  GI50: > 70.8 µM (inactive)
[24]
  GI50: > 86.7 µM (inactive)
[25]
  GI50: 35.5 µM (inactive)
[26]
  GI50: > 100 µM (inactive)
[27]
  GI50: > 100 µM (inactive)
[28]
  GI50: > 100 µM (inactive)
[29]
  GI50: 57.7 µM (inactive)
[30]
  GI50: > 91.6 µM (inactive)
[31]
  GI50: > 100 µM (inactive)
[32]
  GI50: > 100 µM (inactive)
[33]
  GI50: > 73.1 µM (inactive)
[34]
  GI50: 54.1 µM (inactive)
[35]
  GI50: > 100 µM (inactive)
[36]
  GI50: > 100 µM (inactive)
[37]
  GI50: > 100 µM (inactive)
[38]
  GI50: > 71.1 µM (inactive)
[39]
  GI50: 64.7 µM (inactive)
[40]
  GI50: 48.2 µM (inactive)
[41]
  GI50: > 73.6 µM (inactive)
[42]
  GI50: > 74.1 µM (inactive)
[43]
  GI50: 35 µM (inactive)
[44]
  GI50: > 100 µM (inactive)
[45]
  GI50: 65 µM (inactive)
[46]
  GI50: 99.1 µM (inactive)
[47]
  GI50: > 100 µM (inactive)
[48]
  GI50: > 76.9 µM (inactive)
[49]
  GI50: > 76.6 µM (inactive)
[50]
  GI50: > 67.5 µM (inactive)
[51]
  GI50: > 53.2 µM (inactive)
[52]
  GI50: 99.8 µM (inactive)
[53]
  GI50: > 100 µM
[54]
  GI50: 53.1 µM (inactive)
[55]
  GI50: > 100 µM (inactive)
[56]
  GI50: 57.5 µM (inactive)
[57]
  GI50: > 91.4 µM (inactive)
[58]
  GI50: > 100 µM (inactive)
[59]
  GI50: 43.4 µM (inactive)

## CC(=O)c1cc2c(s1)C(=O)c1ccccc1C2=O
[1]
  GI50: 4.39 µM (inactive)
[2]
  GI50: 0.346 µM (active)
[3]
  GI50: 1.96 µM (inactive)
[4]
  GI50: 2.38 µM (inactive)
[5]
  GI50: 3.13 µM (inactive)
[6]
  GI50: 1.57 µM (inactive)
[7]
  GI50: 3.52 µM (inactive)
[8]
  GI50: 9.53 µM (inactive)
[9]
  GI50: 2.4 µM (inactive)
[10]
  GI50: 5.25 µM (inactive)
[11]
  GI50: 29.3 µM (inactive)
[12]
  GI50: 2.01 µM (inactive)
[13]
  GI50: 2.61 µM (inactive)
[14]
  GI50: 1.36 µM (inactive)
[15]
  GI50: 5.93 µM (inactive)
[16]
  GI50: 1.05 µM (active)
[17]
  GI50: 8.18 µM (inactive)
[18]
  GI50: 0.26 µM (active)
[19]
  GI50: 0.557 µM (active)
[20]
  GI50: 1.28 µM (inactive)
[21]
  GI50: 1.68 µM (inactive)
[22]
  GI50: 4.72 µM (inactive)
[23]
  GI50: 5.66 µM (inactive)
[24]
  GI50: 3.24 µM (inactive)
[25]
  GI50: 2.51 µM (inactive)
[26]
  GI50: 4.42 µM (inactive)
[27]
  GI50: 8.05 µM (inactive)
[28]
  GI50: 0.951 µM (active)
[29]
  GI50: 2.73 µM (inactive)
[30]
  GI50: 4.18 µM (inactive)
[31]
  GI50: 0.791 µM (active)
[32]
  GI50: 1.63 µM (inactive)
[33]
  GI50: 1.89 µM (inactive)
[34]
  GI50: 2.59 µM (inactive)
[35]
  GI50: 5.37 µM (inactive)
[36]
  GI50: 1.62 µM (inactive)
[37]
  GI50: 5.47 µM (inactive)
[38]
  GI50: 2.44 µM (inactive)
[39]
  GI50: 1.79 µM (inactive)
[40]
  GI50: 2.48 µM (inactive)
[41]
  GI50: 4.31 µM (inactive)
[42]
  GI50: 15.3 µM (inactive)
[43]
  GI50: 0.944 µM (active)
[44]
  GI50: 3.4 µM (inactive)
[45]
  GI50: 2.79 µM (inactive)
[46]
  GI50: 3.52 µM (inactive)
[47]
  GI50: 0.424 µM (active)
[48]
  GI50: 2.37 µM (inactive)
[49]
  GI50: 1.74 µM (inactive)
[50]
  GI50: 2.84 µM (inactive)
[51]
  GI50: 2.13 µM (inactive)
[52]
  GI50: 2.09 µM (inactive)
[53]
  GI50: 0.61 µM
[54]
  GI50: 0.457 µM (active)
[55]
  GI50: 0.513 µM (active)
[56]
  GI50: 2.08 µM (inactive)
[57]
  GI50: 1.26 µM (inactive)
[58]
  GI50: 2.04 µM (inactive)
[59]
  GI50: 1.44 µM (inactive)
